Consider five molecules from patent US20190137482A1, “HIGH THROUGHPUT SCREENING OF AGENTS ON DOPAMINERGIC NEURONS” (Cell Cure Neurosciences Ltd., priority 2013, published 2019).

In data set [1] the test system is hESC-derived dopaminergic neurons. The data set is described as follows: DansylD1 labeling and uptake in hESC-derived dopaminergic neurons. In kind it is cell-based, human. The following applies: for DansylD1 fluorescence level: hESC-derived dopaminergic neurons after 26 days of differentiation, agent present in the medium, FIGS. 6A-6D.
Source text: In order to direct the differentiation of hESCs into DA neurons, the cells were first directed to become neural progenitors within free-floating spheres (2 weeks) in the presence of the dual SMAD inhibitors (LDN193189+SB431542), FGF8, Purmorphamine and CHIR. They were further directed to differentiate into DA progenitors (7 days) as adherent cultures on laminin/fibronectin in the presence of FGF8, Purmorphamine and CHIR. Finally, they were differentiated into mature DA neurons (7 days) in the presence of the following factors (BDNF, NT4, AA, db-cAMP, TGFbeta3, GDNF and DAPT). The relevant factors/mitogens were replaced every 2-3 days.
(§3) For Binding and uptake of the fluorescent ligand, 500-1000 nM of DansylD1™ (Five Photon Biochemicals™, Lot#81672) was administrated to the seeded cells after 2 weeks of differentiation on the coverslips or on 12/24 wells plastic plates for 10-15 minutes in 37° C. […] Uptake levels of the dansylD1 fluorescent ligand molecule were detected and analyzed by fluorescence microscope and a fluorescence micro-plate reader (Bioteck, 333/515 nm). Acquisition and analysis was performed using Magelan software and Microsoft Excel.
The neuronal culture was incubated in the presence of the D2 antagonist Sulpiride.
For the next data set, the system named is PC12 cells. The data set is described as follows: DansylD1 uptake calibration in PC-12 cells (fluorescence microscope). In kind it is cell-based. The conditions noted are these: 500 nM DansylD1, dopamine as competitive inhibitor, GBR as dopamine transporter blocker, FIGS. 3A-3D.
For another data set, the system named is dopaminergic neurons. The experiment in a line: DansylD1 fluorescence in dopaminergic neurons after toxin exposure. In kind it is cell-based, human. The following applies: for DansylD1 fluorescence levels by micro-plate reader: 2 week differentiated live mature DA neurons, different toxin concentrations, 1 day, DansylD1 added again, FIG. 11. As to the method:
For Binding and uptake of the fluorescent ligand, 500-1000 nM of DansylD1™ (Five Photon Biochemicals™, Lot#81672) was administrated to the seeded cells after 2 weeks of differentiation on the coverslips or on 12/24 wells plastic plates for 10-15 minutes in 37° C. DansylD1 functions as the dopamine neurotransmitter in binding to the D2 dopamine receptor on Dopaminergic and GABAergic neurons and uptake through the dopamine transporter (DAT) by dopaminergic neurons. 50 nM of the D2 dopamine receptor antagonist—Sulpiride (sigma S112, Lot#108H4745) or 5 nM of the dopamine transporter (DAT) blocker—GBR (Sigma G9659, Lot#086K4104), were added for 10 minutes to the seeded cells in order to reduce the binding to non-dopaminergic neurons or to block the specific DansylD1 uptake respectively. Uptake levels of the dansylD1 fluorescent ligand molecule were detected and analyzed by fluorescence microscope and a fluorescence micro-plate reader (Bioteck, 333/515 nm). Acquisition and analysis was performed using Magelan software and Microsoft Excel.
Dopaminergic neurons were fluorescently labeled with Dansyl D1. Increasing levels of 6-OH dopamine (50 nM and 100 nM) were added to the dopaminergic neurons and following 1 day of culture, the neurons were contacted again with Dansyl D1. The cells were rinsed and then the amount of fluorescence was analyzed.
(§1) An additional experiment compared the effect of 100 nM 6-OH dopamine with 200 nM 6-OH dopamine. As illustrated in FIGS. 10A-10B, after addition of 200 nM 6-OH-dopamine to mature DA neurons the fluorescence levels of dansylD1 was decreased (green) and also the percentage of cells expressing TH (DA neuron marker) declined to 1-2% (FIGS. 10C and D).
(§2) Dansyl D1 was added to 2 week differentiated live mature DA neurons and the fluorescence levels quantified by fluorescence micro-plate reader. Later the cells were washed and different 6-OH-dopamine concentrations were added. After a day, dansylD1 was added again and the fluorescent levels measured once again.

For the next data set, the system named is mature DA neurons. The experiment in a line: TH expression in mature DA neurons after toxin exposure. Type of data set: cell-based, human. As to the method: For staining, cells on the coverslips were blocked in 5% normal goat/donkey serum (NGS) for 1 hour at room temperature. The anti TH antibody was diluted 1:100 or 1:1000 in 1% normal donkey/goat serum (NGS) and applied for 1 hour at room temperature. The antibodies that was employed were rabbit anti-human TH polyclonal antibody or mouse anti-human TH monoclonal antibody, Cat No. p40101, purchased from Pel-freez, or Cat No. T1299 purchased from Sigma and rabbit anti hu Nurr1 ab AB5778 (Millipore 10 ug/ml) or mouse igG anti NurrI (millipore, 1:200 or 1:1000), Rabbit Anti DAT AB5802 (Millipore, 1:500-1:1000). Following three washes in PBS, swine-anti rabbit FITC or goat anti mouse Cy-3-antibody diluted 1:50 or 1:500 in 1% normal goat serum (NGS) was applied for 1 hour at room temperature. Cells were washed in PBS, fixed with 4% PFA and mounted in the presence of the nuclear counterstain DAPI for immunofluoresecent microscopic examination.
as §1

Another data set has as its system DA neurons. The data set is described as follows: Protection of DA neurons from the toxin 6-OH dopamine. In kind it is cell-based, human. The following applies: cells over-expressing GDNF; FIG. 12. Here is the method: as §2
[2] abbreviates: 200 nM toxin, mature DA neurons.

Procedure for PC12 cells: as §3

On to `CCN1CCCC1CNC(=O)c1cc(S(N)(=O)=O)ccc1OC` (stereo not shown) [sulpiride], for which, in data set [1] (neuronal culture incubated with the D2 antagonist, fluorescent vesicles appear, FIGS. 8A-8B), the “DansylD1 signal from the cells surface” value is listed as “less signal from the cells surface”.

For the molecule `NCCc1ccc(O)c(O)c1` [dopamine], the “amount of DansylD1 fluorescence in the cells” value in the data set on PC12 cells was “decreased the amount of fluorescence”. Moreover, the DansylD1 fluorescence level result in data set [1] is reported as “caused the fluorescence level to decline”.

Take `Cl.Cl.Fc1ccc(C(OCCN2CCN(CCCc3ccccc3)CC2)c2ccc(F)cc2)cc1` [GBR]: the “amount of DansylD1 fluorescence in the cells” value in the data set with PC12 cells is “decreased the amount of fluorescence”. The DansylD1 fluorescence level entry in data set [1] is “caused the fluorescence level to decline”.

Turning to `NCCc1cc(O)c(O)cc1O` [6-OH-dopamine], the “amount of Dansyl D1 fluorescence in dopaminergic cells” value with dopaminergic neurons (50 nM and 100 nM toxin, 1 day of culture, relabeled with Dansyl D1, FIGS. 10A-10C) was “reduced”. In the data set on dopaminergic neurons (100 nM toxin), the Dansyl-D1 uptake entry is on record as “significant decrease”. Moreover, the “fluorescence levels of dansylD1” value in the data set on dopaminergic neurons (setting [2]) is reported as “decreased”. In addition, the results for the “DansylD1 fluorescence levels by micro-plate reader” value in the data set on dopaminergic neurons and in the data set with dopaminergic neurons (listed as 6-OH dopamine) were “decreased by half” and “reduced in correlation with the amount of toxin”, respectively. Moreover, the TH positive cells result with mature DA neurons (100 nM toxin) was “only minor reduction”. The “percentage of cells expressing TH” value with mature DA neurons (setting [2]) is 1-2%.

B1: GDNF: neurotrophic factor over-expressed by cells that protected DA neurons from the toxin (protein, UniProt P39905 78-211, looked up)
Glial cell line-derived …: SPDKQMAVLPRRERNRQAAAANPENSRGKGRRGQRGKNRGCVLTAIHLNVTDLGLGYETKEELIFRYCSGSCDAAETTYDKILKNLSRNRRLVSDKVGQACCRPIAFDDDLSFLDDNLVYHILRKHSAKRCGCI
On to B1, for which, in the data set with DA neurons, the “protection of neurons from the toxin 6-OH dopamine” value was “protected”.
